According to paper PMC11444265 (European journal of medicinal chemistry, 2021):
Values after ≈ are worked out from the molar mass of the structure shown. Values joined by “and” are separate entries in the source; they are usually repeats but may differ in a detail not shown here. Identical values can stand only once. “Also recorded” adds a separate entry of the source. Peptide text beside a SMILES is read from it. * marks the point of attachment. βNA = c1ccc2cc(N*)ccc2c1

Columns and labels:
Acinetobacter spp. = assay: MIC in low iron media, 198-member panel of Acinetobacter spp. clinical isolates; format: cell-based
[1] = test system: Acinetobacter spp. isolates resistant to 2; assay: MIC of 2 in combination with efflux pump inhibitors; format: cell-based; conditions: for direct effect of efflux pump inhibitor on growth: 2 μg/mL for CCCP and 32 μg/mL for PAβN
[2] = test system: P. aeruginosa AR-BANK#0229; assay: Neutropenic mouse thigh infection model; format: in vivo; conditions: 50 and 100 mg/kg SC q6h, neutropenic mice
[3] = mice; cited from earlier work
P. aeruginosa = format: cell-based, Pseudomonas aeruginosa; conditions: for susceptibility of strain: strain AR-BANK#0229
K. pneumoniae = format: cell-based; conditions: Klebsiella pneumoniae
[4] = test system: carbapenem-resistant A. baumannii (CRAB); assay: MIC in low iron media, 98-member carbapenem-resistant A. baumannii; format: cell-based
Caco-2 = Caco-2 permeability; format: in vitro ADME
[5] = Plasma protein binding, mouse; format: in vitro ADME
[6] = Plasma protein binding, human; format: in vitro ADME
8 CYP enzymes = assay: CYP inhibition panel; format: in vitro ADME; conditions: 7 of the 8 CYP enzymes tested, 30 μM
[7] = test system: human primary hepatocytes; assay: Cytotoxicity in human primary hepatocytes; format: cell-based; conditions: maximal dose of 100 μM
[8] = test system: 6 ion channels, including hERG; assay: Ion channel panel; conditions: 30 μM maximal dose
[9] = Pharmacokinetics in CD-1 mice, 50 mg/kg sc or iv; format: in vivo; conditions: for Sample Conc (individual mouse plasma): sc 50 mg/kg
[10] = test system: MDR strains of K. pneumoniae, Acinetobacter spp., and P. aeruginosa; assay: MIC50 summary against MDR strains; format: cell-based

Compound `C[C@H]1[C@H](NC(=O)/C(=N\OC(C)(C)C(=O)O)c2csc(N)n2)C(=O)N1S(=O)(=O)O` [Aztreonam (3), aztreonam] has an MIC50 (Acinetobacter spp.; Acinetobacter) of over 32 µg/mL and an MIC90 (Acinetobacter spp.; Acinetobacter) of over 32 µg/mL.

In the case of `N#CC(C#N)=NNc1cccc(Cl)c1` [CCCP, carbonyl cyanide 3-chlorophenylhydrazone, reference compound], the “direct effect of efflux pump inhibitor on growth” value [1] is reported as “No significant inhibition effect on growth”.

`CC(C)(O/N=C(\C(=O)N[C@@H]1C(=O)N2C(C(=O)[O-])=C(C[n+]3ccccc3)CS[C@H]12)c1csc(N)n1)C(=O)O` [Ceftazidime (4), ceftazidime] showed an MIC90 (Acinetobacter spp.; Acinetobacter) of over 64 µg/mL.

For `CC(C)(O/N=C(\C(=O)N[C@H]1CN2CC(C(=O)NCCN3C(=O)c4cc(O)c(O)cc4C3=O)=C(C(=O)O)N2C1=O)c1csc(N)n1)C(=O)O` [Compound 1], the “efficacy (thigh bacterial burden, CFU)” value [2] is given as “not found to have efficacy” and the “plasma concentration at the 6-hour timepoint” value [3] is given as “about 0.35 mg/mL”.

For `CC(C)(O/N=C(\C(=O)N[C@H]1CN2CC(C(=O)NCCN3C(=O)c4cc(O)c(O)cc4C3=O)=C(C(=O)O)N2C1=O)c1nc(N)sc1Cl)C(=O)O` [Compound 2, (S,Z)-6-(2-(2-amino-5-chlorothiazol-4-yl)-2-(((2-carboxypropan-2-yl)oxy)imino)acetamido)-2-((2-(5,6-dihydroxy-1,3-dioxoisoindolin-2-yl)ethyl)carbamoyl)-5-oxo-6,7-dihydro-1H,5H-pyrazolo[1,2-a]pyrazole-3-carboxylic acid], the MIC50 (P. aeruginosa; Pseudomonas aeruginosa) was 500 µg/mL (≈ 693 µM), the MIC50 (K. pneumoniae) was 1000 µg/mL (≈ 1390 µM) and the “fraction of strains with MICs >=16 μg/mL” value (Acinetobacter spp.; 24 of 198 tested strains) was 12%. For the same compound, the MIC90 (Acinetobacter spp.; Acinetobacter) was over 16 µg/mL, the “share of panel that could be susceptible” value (Acinetobacter spp.; full 198 member panel, 2 with 20 μg/mL coadministration of sulbactam) was 98% and the “susceptibility of panel (isolates susceptible)” value ([4]; 98 CRAB subset, cefiderocol breakpoint <=4 μg/mL applied, 81 out of 98) was 83%. The “fraction of strains with MICs >=16 μg/mL” value ([4]; carbapenem-resistant subgroup, 15 of 98) was 15%, the Caco-2 permeability (Caco-2) was “poor Caco-2 permeability” and the protein-bound [5] was 94%. For the same compound, the protein-bound [6] was 88%, the CYP inhibition (8 CYP enzymes) was “does not inhibit” and the cytotoxicity [7] was “not found”. For the same compound, the ion channel inhibition [8] was “did not inhibit these channels”, the “plasma level at the 6h time point” value ([9]; CD-1 mice, by both dosing routes (sc and iv)) was over 1000 µg/mL and the “Sample Conc (individual mouse plasma)” value ([9]; 0.167 h) was 48689 ng/mL and 44921 ng/mL. For the same compound, the “Sample Conc (individual mouse plasma)” value ([9]; 0.5 h) was 14355 ng/mL and 14094 ng/mL, the “Sample Conc (individual mouse plasma)” value ([9]; 1 h) was 3515 ng/mL and 3186 ng/mL and the “Sample Conc (individual mouse plasma)” value ([9]; 2 h) was 2876 ng/mL. The “Sample Conc (individual mouse plasma)” value ([9]; 4 h) was 1534 ng/mL and 739 ng/mL, the “Sample Conc (individual mouse plasma)” value ([9]; 6 h) was 1102 ng/mL and 1425 ng/mL and the “Sample Conc (individual mouse plasma)” value ([9]; 8 h) was 1473 ng/mL and 1126 ng/mL. For the same compound, the “Sample Conc (individual mouse plasma)” value ([9]; 24 h) was 545 ng/mL and 579 ng/mL, the “efficacy (thigh bacterial burden, CFU)” value [2] was “dose-dependent efficacy; also recorded: dose-dependent reduction in CFU values” and the “effect of efflux pump inhibitors on MIC of 2” value ([1]; combined with CCCP 2 μg/mL or PAβN 32 μg/mL) was “no consistent effect on MIC values”. The “effect of combination with CCCP” value ([1]; isolate PR-452, CCCP 2 μg/mL) was “Potential synergistic effects” and the MIC50 [10] was at most 0.5 µg/mL.

With `CC1(C)[C@H](C(=O)O)N2C(=O)C[C@H]2S1(=O)=O` [Compound 10, sulbactam] the “isolates with MICs <=16 μg/mL” value (Acinetobacter spp.; 24 isolates with MIC of 2 >=16 μg/mL, 19/24) was 79%.

In the case of `C[C@@H](O)[C@H]1C(=O)N2C(C(=O)O)=C(S[C@@H]3CN[C@H](C(=O)N(C)C)C3)[C@H](C)[C@H]12` [Meropenem (5), meropenem, reference compound], the MIC90 (Acinetobacter spp.; Acinetobacter) is reported as over 64 µg/mL, the MIC90 ([4]; Acinetobacter baumannii) is reported as over 64 µg/mL and the MIC50 [10] is reported as over 8 µg/mL.

With `NC(N)=NCCC[C@H](NC(=O)[C@@H](N)Cc1ccccc1)C(=O)Nc1ccc2ccccc2c1` [PaβN, phenylalanine-arginine β-naphthylamide, reference compound] (H-Phe-Arg-βNA) the “direct effect of efflux pump inhibitor on growth” value [1] was “No significant inhibition effect on growth”.

In the case of `NCC[C@H](O)C(=O)N[C@@H]1C[C@H](N)[C@@H](O[C@H]2O[C@H](CN)[C@@H](O)[C@H](O)[C@H]2O)[C@H](O)[C@H]1O[C@H]1O[C@H](CO)[C@@H](O)[C@H](N)[C@H]1O` [amikacin], the susceptibility of strain (P. aeruginosa) is reported as “susceptible”.

For `CNC(C)C1CCC(N)C(OC2C(N)CC(N)C(OC3OCC(C)(O)C(NC)C3O)C2O)O1` (stereo not shown) [gentamicin], the susceptibility of strain (P. aeruginosa) was “susceptible”.

In the case of colistin, the susceptibility of strain (P. aeruginosa) is reported as “susceptible”.
